Laboratory results: patent US9284284B2, “Oxazine derivatives and their use in the treatment of disease” (NOVARTIS AG, priority 2011, dated 2016)

Key:
[1] = system: amyloid peptide 1-40 release; assay: Test 4: Inhibition of Cellular Release of Amyloid Peptide 1-40; format: cell-based; conditions: Cricetulus griseus; Chinese hamster ovary cells transfected with the human gene for amyloid precursor protein, 24 hours; read-out: Amyloid-β1-40 release IC50
Protocol: Chinese hamster ovary cells are transfected with the human gene for amyloid precursor protein. The cells are plated at a density of 8000 cells/well into 96-well microtiter plates and cultivated for 24 hours in DMEM cell culture medium containing 10% FCS. The test compound is added to the cells at various concentrations, and the cells are cultivated for 24 hours in the presence of the test compound. […] The potency of the compound is calculated from the percentage of inhibition of amyloid peptide release as a function of the test compound concentration.

[2] = biological target: human BACE-2 (Homo sapiens (Human), UniProt Q9Y5Z0); assay: Test 2: Inhibition of Human BACE-2; format: biochemical; conditions: recombinant BACE-2, pH 4.5, fluorescence-quenched substrate
Protocol: Test 2: Inhibition of Human BACE-2
(§1) Recombinant BACE-2 (extracellular domain, expressed in baculovirus and purified using standard methods) at 0.1 to 1 nM concentrations is incubated with the test compound at various concentrations for 1 hour at room temperature in 100 mM acetate buffer, pH 4.5, containing 0.1% CHAPS. Activity was measured using a final concentration of 3 μM of the fluorescence-quenched substrate Q-C(HSO3)-Ile-Asp-Leu-Ala-Val-Leu-Asp-HN—CH2—CH2-Mca, where Q=2-nitro-5-amino benzoic acid and Mca=7-methoxy-4-coumarinyl acetic acid. […] Fluorescence increase was followed for 15 min, in 1 minute's intervals. The fluorescence/time slopes were calculated from duplicate wells and from wells without inhibitor and the IC50 values were calculated using a logistic 4-parameter model.

[3] = biological target: human BACE-1 (Homo sapiens (Human), UniProt P56817); assay: Test 1: Inhibition of Human BACE-1; format: biochemical; conditions: recombinant BACE-1, pH 4.5, fluorescence-quenched substrate
Protocol: Test 1: Inhibition of Human BACE-1
as §1, with “BACE-1” for “BACE-2”

Sequence of human BACE-2 (Q9Y5Z0 63-473): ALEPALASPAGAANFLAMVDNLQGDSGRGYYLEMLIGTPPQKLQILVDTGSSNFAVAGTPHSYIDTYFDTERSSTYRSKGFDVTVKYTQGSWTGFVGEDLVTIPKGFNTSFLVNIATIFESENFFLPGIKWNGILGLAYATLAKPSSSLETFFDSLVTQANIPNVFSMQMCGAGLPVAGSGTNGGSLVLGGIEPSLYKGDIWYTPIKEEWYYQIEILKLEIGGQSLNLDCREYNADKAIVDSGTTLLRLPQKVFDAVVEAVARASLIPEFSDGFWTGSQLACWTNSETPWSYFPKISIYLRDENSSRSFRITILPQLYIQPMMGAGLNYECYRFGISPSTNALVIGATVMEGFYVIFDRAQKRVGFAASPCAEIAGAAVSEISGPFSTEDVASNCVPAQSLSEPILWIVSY
Sequence of human BACE-1 (P56817 46-457): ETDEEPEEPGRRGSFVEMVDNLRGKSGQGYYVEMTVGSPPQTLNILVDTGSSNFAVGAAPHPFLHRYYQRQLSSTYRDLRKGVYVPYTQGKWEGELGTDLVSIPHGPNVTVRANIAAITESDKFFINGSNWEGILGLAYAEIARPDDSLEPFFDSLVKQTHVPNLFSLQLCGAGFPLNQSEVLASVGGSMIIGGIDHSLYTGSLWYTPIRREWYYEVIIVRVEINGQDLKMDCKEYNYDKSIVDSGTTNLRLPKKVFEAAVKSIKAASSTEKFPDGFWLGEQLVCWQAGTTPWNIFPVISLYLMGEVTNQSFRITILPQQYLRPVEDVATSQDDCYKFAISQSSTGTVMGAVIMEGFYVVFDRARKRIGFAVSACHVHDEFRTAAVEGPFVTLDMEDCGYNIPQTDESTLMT

| IC50 [1] [nM] | IC50 [2] [nM] | IC50 [3] [nM] | Compound |
| --- | --- | --- | --- |
| 220 | 27 | 210 | COc1cccnc1Nc1ccc(F)c([C@]2(C)CO[C@@](C)(C(F)(F)F)C(N)=N2)c1 [Example 25, (2R,5R)-5-[2-Fluoro-5-(3-methoxy-pyridin-2-ylamino)-phenyl]-2,5-dimethyl-2-trifluoromethyl-5,6-dihydro-2H-[1,4]oxazin-3-ylamine] |
| 690 | 1400 | 2900 | COc1cc([N+](=O)[O-])cnc1Nc1ccc(F)c([C@]2(C(F)F)COCC(N)=N2)c1 [Example 26, (R)-5-Difluoromethyl-5-[2-fluoro-5-(3-methoxy-5-nitro-pyridin-2-ylamino)-phenyl]-5,6-dihydro-2H-[1,4]oxazin-3-ylamine] |
| 2000 | 660 | 3000 | COc1cc(N)cnc1Nc1ccc(F)c([C@]2(C(F)F)COCC(N)=N2)c1 [Example 27, N*2*-[3-((R)-5-Amino-3-difluoromethyl-3,6-dihydro-2H-[1,4]oxazin-3-yl)-4-fluoro-phenyl]-3-methoxy-pyridine-2,5-diamine] |
| 150 | 200 | 68 | C[C@@]1(c2nc(Nc3ncnc4cc(C(F)(F)F)cnc34)ccc2F)CO[C@@](C)(C(F)(F)F)C(N)=N1 [Example 28, [6-((3R,6R)-5-Amino-3,6-dimethyl-6-trifluoromethyl-3,6-dihydro-2H-[1,4]oxazin-3-yl)-5-fluoro-pyridin-2-yl]-(7-trifluoromethyl-pyrido[3,2-d]pyrimidin-4-yl)-amine] |
| 150 | 1600 | 1500 | C[C@@]1(c2nc(Nc3ncccc3C#N)ccc2F)CO[C@@](C)(C(F)(F)F)C(N)=N1 [Example 30, 2-[6-((3R,6R)-5-Amino-3,6-dimethyl-6-trifluoromethyl-3,6-dihydro-2H-[1,4]oxazin-3-yl)-5-fluoro-pyridin-2-ylamino]-nicotinonitrile] |
| 1000 | 1700 | 6400 | COc1cccnc1Nc1ccc(F)c([C@]2(C)CO[C@@](C)(C(F)(F)F)C(N)=N2)n1 [Example 31, (2R,5R)-5-[3-Fluoro-6-(3-methoxy-pyridin-2-ylamino)-pyridin-2-yl]-2,5-dimethyl-2-trifluoromethyl-5,6-dihydro-2H-[1,4]oxazin-3-ylamine] |
| 8300 | > 10000 | > 10000 | Cn1nc(Nc2cccc([C@]3(C)COCC(N)=N3)c2)c2ccccc21 [Example 32, [3-((R)-5-Amino-3-methyl-3,6-dihydro-2H-[1,4]oxazin-3-yl)-phenyl]-(1-methyl-1H-indazol-3-yl)-amine] |
| > 10000 | > 10000 | > 10000 | COc1cnc(N)nc1Nc1ccc(F)c([C@]2(C(F)F)COCC(N)=N2)c1 [N*4*-[3-((R)-5-amino-3-difluoromethyl-3,6-dihydro-2H-[1,4]oxazin-3-yl)-4-fluoro-phenyl]-5-methoxy-pyrimidine-2,4-diamine] |
| > 10000 | > 10000 | > 10000 | C[C@@]1(c2cccc(Nc3n[nH]c4ccccc34)c2)COCC(N)=N1 [[3-((R)-5-amino-3-methyl-3,6-dihydro-2H-[1,4]oxazin-3-yl)-phenyl]-(1H-indazol-3-yl)-amine] |
